Assay: xn = mol fraction of the nth substance listed
Conditions: Liquid

CCCCCCCCCC [decane] + CCO
Conditions | mass density [kg/m3] | viscosity [mPa·s]
273.15 K, x2 = 0.098 | 746.5 | 1.236
273.15 K, x2 = 0.198 | 748.3 | 1.257
273.15 K, x2 = 0.301 | 750.7 | 1.273
273.15 K, x2 = 0.397 | 753.8 | 1.328
273.15 K, x2 = 0.501 | 757.4 | 1.429
273.15 K, x2 = 0.602 | 762.7 | 1.523
273.15 K, x2 = 0.694 | 767.4 | 1.53
273.15 K, x2 = 0.799 | 774.9 | 1.565
273.15 K, x2 = 0.905 | 787.7 | 1.639
275.65 K, x2 = 0.098 | 744.6 | 1.181
275.65 K, x2 = 0.198 | 746.4 | 1.2
275.65 K, x2 = 0.301 | 748.7 | 1.213
275.65 K, x2 = 0.397 | 751.8 | 1.263
275.65 K, x2 = 0.501 | 755.4 | 1.351
275.65 K, x2 = 0.602 | 760.7 | 1.432
275.65 K, x2 = 0.694 | 765.4 | 1.448
275.65 K, x2 = 0.799 | 772.9 | 1.486
275.65 K, x2 = 0.905 | 785.7 | 1.557
278.15 K, x2 = 0.098 | 742.7 | 1.13
278.15 K, x2 = 0.198 | 744.4 | 1.148
278.15 K, x2 = 0.301 | 746.8 | 1.158
278.15 K, x2 = 0.397 | 749.9 | 1.203
278.15 K, x2 = 0.501 | 753.4 | 1.281
278.15 K, x2 = 0.602 | 758.7 | 1.353
278.15 K, x2 = 0.694 | 763.3 | 1.374
278.15 K, x2 = 0.799 | 770.9 | 1.412
278.15 K, x2 = 0.905 | 783.6 | 1.48
280.65 K, x2 = 0.098 | 740.8 | 1.083
280.65 K, x2 = 0.198 | 742.5 | 1.099
280.65 K, x2 = 0.301 | 744.8 | 1.107
280.65 K, x2 = 0.397 | 747.9 | 1.147
280.65 K, x2 = 0.501 | 751.5 | 1.217
280.65 K, x2 = 0.602 | 756.7 | 1.282
280.65 K, x2 = 0.694 | 761.3 | 1.305
280.65 K, x2 = 0.799 | 768.8 | 1.344
280.65 K, x2 = 0.905 | 781.6 | 1.408
283.15 K, x2 = 0.098 | 738.9 | 1.038
283.15 K, x2 = 0.198 | 740.6 | 1.053
283.15 K, x2 = 0.301 | 742.9 | 1.06
283.15 K, x2 = 0.397 | 746 | 1.096
283.15 K, x2 = 0.501 | 749.5 | 1.159
283.15 K, x2 = 0.602 | 754.7 | 1.219
283.15 K, x2 = 0.694 | 759.3 | 1.242
283.15 K, x2 = 0.799 | 766.8 | 1.28
283.15 K, x2 = 0.905 | 779.5 | 1.341
285.65 K, x2 = 0.098 | 737 | 0.9963
285.65 K, x2 = 0.198 | 738.7 | 1.01
285.65 K, x2 = 0.301 | 741 | 1.015
285.65 K, x2 = 0.397 | 744 | 1.048
285.65 K, x2 = 0.501 | 747.5 | 1.105
285.65 K, x2 = 0.602 | 752.7 | 1.158
285.65 K, x2 = 0.694 | 757.3 | 1.183
285.65 K, x2 = 0.799 | 764.7 | 1.22
285.65 K, x2 = 0.905 | 777.4 | 1.278
288.15 K, x2 = 0.098 | 735 | 0.9574
288.15 K, x2 = 0.198 | 736.7 | 0.9702
288.15 K, x2 = 0.301 | 739 | 0.9738
288.15 K, x2 = 0.397 | 742 | 1.003
288.15 K, x2 = 0.501 | 745.5 | 1.056
288.15 K, x2 = 0.602 | 750.6 | 1.104
288.15 K, x2 = 0.694 | 755.2 | 1.128
288.15 K, x2 = 0.799 | 762.7 | 1.163
288.15 K, x2 = 0.905 | 775.3 | 1.218
290.65 K, x2 = 0.098 | 733.1 | 0.9207
290.65 K, x2 = 0.198 | 734.8 | 0.9321
290.65 K, x2 = 0.301 | 737 | 0.9348
290.65 K, x2 = 0.397 | 740 | 0.9608
290.65 K, x2 = 0.501 | 743.5 | 1.009
290.65 K, x2 = 0.602 | 748.6 | 1.053
290.65 K, x2 = 0.694 | 753.1 | 1.076
290.65 K, x2 = 0.799 | 760.6 | 1.11
290.65 K, x2 = 0.905 | 773.3 | 1.162
293.15 K, x2 = 0 | 731 | 0.9133
293.15 K, x2 = 0.098 | 731.2 | 0.8862
293.15 K, x2 = 0.198 | 732.8 | 0.8973
293.15 K, x2 = 0.301 | 735.1 | 0.8982
293.15 K, x2 = 0.397 | 738 | 0.9215
293.15 K, x2 = 0.501 | 741.5 | 0.966
293.15 K, x2 = 0.602 | 746.6 | 1.006
293.15 K, x2 = 0.694 | 751.1 | 1.028
293.15 K, x2 = 0.799 | 758.5 | 1.061
293.15 K, x2 = 0.905 | 771.2 | 1.109
295.65 K, x2 = 0.098 | 729.4 | 0.8534
295.65 K, x2 = 0.198 | 730.9 | 0.8635
295.65 K, x2 = 0.301 | 733.1 | 0.8638
295.65 K, x2 = 0.397 | 736 | 0.8848
295.65 K, x2 = 0.501 | 739.5 | 0.9255
295.65 K, x2 = 0.602 | 744.5 | 0.962
295.65 K, x2 = 0.694 | 749 | 0.983
295.65 K, x2 = 0.799 | 756.5 | 1.014
295.65 K, x2 = 0.905 | 769.1 | 1.06
298.15 K, x2 = 0 | 727.2 | 0.8509
298.15 K, x2 = 0.098 | 727.3 | 0.823
298.15 K, x2 = 0.198 | 728.9 | 0.8318
298.15 K, x2 = 0.301 | 731.1 | 0.8314
298.15 K, x2 = 0.397 | 734 | 0.8501
298.15 K, x2 = 0.501 | 737.5 | 0.8872
298.15 K, x2 = 0.602 | 742.5 | 0.9216
298.15 K, x2 = 0.694 | 747 | 0.9407
298.15 K, x2 = 0.799 | 754.4 | 0.9698
298.15 K, x2 = 0.905 | 766.9 | 1.013
